Measured values from paper PMC8842279, “Exploring Non-orthosteric Interactions with a Series of Potent and Selective A3 Antagonists” (ACS Medicinal Chemistry Letters, 2022).

Experiments:
[1] = target: T1, hA1 (human A1 adenosine receptor) (Homo sapiens, UniProt P30542); experiment: Radioligand binding, displacement of [3H]DPCPX, transfected CHO cells; details: n = 2, read-out: hA1 % displacement of specific binding at 1 μM
T1 construct: expressed in transfected cells; host or cells: CHO
T1 sequence (P30542 1-326): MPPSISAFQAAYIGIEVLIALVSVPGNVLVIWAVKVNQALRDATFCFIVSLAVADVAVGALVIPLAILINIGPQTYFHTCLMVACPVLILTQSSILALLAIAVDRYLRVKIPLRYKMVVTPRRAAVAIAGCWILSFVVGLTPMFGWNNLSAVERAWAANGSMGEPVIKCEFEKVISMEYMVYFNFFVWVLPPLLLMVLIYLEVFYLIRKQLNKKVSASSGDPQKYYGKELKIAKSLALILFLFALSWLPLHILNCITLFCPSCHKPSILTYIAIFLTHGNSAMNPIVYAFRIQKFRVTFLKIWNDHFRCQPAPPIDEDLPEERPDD
Experimental: (§1) Briefly, hARs were expressed in transfected CHO (A1AR), HeLa (A2AAR and A3AR), and HEK-293 (A2BAR) cells. (^3H)-8-Cyclopentyl-1,3-dipropylxanthine ([^3H]DPCPX) for A1AR and [^3H]NECA for A3AR were used as radioligands in the assays. […] Ki values were calculated by fitting the data with nonlinear regression using Prism 2.1 software (GraphPad). […].
(§2) Pharmacology. Binding assays
(§3) The adenosinergic profile (affinity and selectivity) of the 18 novel pyrimidine derivatives (7-10) was evaluated in vitro (four human AR subtypes) using radioligand binding assays. Human adenosine receptors were expressed in transfected CHO (A1AR), HeLa (A2AAR and A3AR) and HEK-293 (A2BAR) cells. (3H)-1,3-Dipropyl-8-cyclopentylxanthine ([3H]DPCPX) for A1AR and [3H]NECA for A3AR were employed as radioligands in the assays. […]
displace specific radioligand binding. Ki values were obtained by fitting the data with nonlinear regression using Prism 2.1 software (GraphPad, San Diego, CA).
Furthermore, for A3AR, fluorescence polarization binding experiments were carried out in a 96-well plate (Corning 3650). D-PBS (Sigma D8537) was used as assay buffer. In each well, 100µg of membranes from Hela-A3 cell line previously prepared in our laboratory (Lot: A006/ 17-01-2020, […]
as standard and non-specific binding determined in presence of R-PIA 10µM (Sigma S739). 75 nM of the fluorescent ligand (CELT-228) was added, and the reaction mixture (Vt = 200µl) was incubated for 30 minutes at RT. The polarized fluorescence signal was read in an Infinite M1000 pro multiplate reader (Tecan 30063849). For validation of fluorescence polarization binding assay […] (hA 3AR Ki […]
representation of the concentration-response curves of the […].
(§4) (1 picture or pasted object on this page, not shown here)

[2] = target: T2, hA2A (human A2A adenosine receptor) (Homo sapiens, UniProt P29274); type: binding; details: human HeLa cells, n = 2
T2 construct: expressed in transfected cells; host or cells: HeLa
T2 sequence (P29274 whole entry): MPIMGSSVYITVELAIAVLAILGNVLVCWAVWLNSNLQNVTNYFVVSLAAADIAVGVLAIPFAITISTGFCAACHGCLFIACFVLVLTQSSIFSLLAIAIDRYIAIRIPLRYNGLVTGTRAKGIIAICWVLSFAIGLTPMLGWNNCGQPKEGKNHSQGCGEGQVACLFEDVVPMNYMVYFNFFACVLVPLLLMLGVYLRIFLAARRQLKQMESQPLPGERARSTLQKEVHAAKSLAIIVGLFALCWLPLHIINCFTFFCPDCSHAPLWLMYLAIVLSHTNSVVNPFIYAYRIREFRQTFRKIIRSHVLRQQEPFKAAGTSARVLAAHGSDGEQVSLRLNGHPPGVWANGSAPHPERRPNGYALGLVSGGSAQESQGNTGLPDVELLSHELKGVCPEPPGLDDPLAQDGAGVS

[3] = target: T3, hA2B (human A2B adenosine receptor) (Homo sapiens, UniProt P29275); experiment: Radioligand binding, displacement of [3H]DPCPX, transfected HEK-293 cells; details: human HEK-293 cells, n = 2, read-out: hA2B % displacement of specific binding at 1 μM
T3 construct: expressed in transfected cells; host or cells: HEK-293
T3 sequence (P29275 1-332): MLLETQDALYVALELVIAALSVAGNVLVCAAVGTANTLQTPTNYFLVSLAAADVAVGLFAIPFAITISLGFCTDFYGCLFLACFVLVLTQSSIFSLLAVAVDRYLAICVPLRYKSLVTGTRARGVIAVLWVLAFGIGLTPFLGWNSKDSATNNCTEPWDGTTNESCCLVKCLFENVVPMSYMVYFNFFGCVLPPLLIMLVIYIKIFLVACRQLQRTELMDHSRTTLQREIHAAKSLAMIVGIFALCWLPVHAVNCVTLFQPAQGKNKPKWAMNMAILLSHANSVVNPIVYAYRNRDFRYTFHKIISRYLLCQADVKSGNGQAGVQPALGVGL
Experimental: as §1, §2, §3
displace specific radioligand binding. Ki values were obtained by fitting the data with nonlinear regression using Prism 2.1 software (GraphPad, San Diego, CA). […]
as §4

SMILES | inhibition at 1 µM [1] | hA2A % displacement of specific binding at 1 μM [2] | inhibition at 1 µM [3] | melting point
COc1ccc(-c2cc(NC(=O)CCC(=O)N3CCN(CC(=O)NC4CCCCC4)CC3)nc(-c3ccc(OC)cc3)n2)cc1 [9b] | 9% | 1% | 1% | 
COc1ccc(-c2cc(NC(=O)CCC(=O)N3CCN(CC(=O)NCc4ccccc4)CC3)nc(-c3ccc(OC)cc3)n2)cc1 [9c] | 6% | 9% | 2% | 194 to 195 °C
COc1ccc(-c2cc(NC(C)=O)nc(-c3ccc(OC)cc3)n2)cc1 [ISVY-130, N-(2,6-bis(4-methoxyphenyl)pyrimidin-4-yl)acetamide, reference compound] | 1% | 10% | 4% | 
COc1ccc(-c2cc(NC(=O)CCC(=O)NCC(=O)NC3CCCCC3)nc(-c3ccc(OC)cc3)n2)cc1 [7b] | 5% | 9% | 16% | 202 to 204 °C
COc1ccc(-c2cc(NC(=O)COCC(=O)N(C)CC(=O)NC3CCCCC3)nc(-c3ccc(OC)cc3)n2)cc1 [8e] | 13% | 8% | 2% | 186 to 188 °C
COc1ccc(-c2cc(NC(=O)COCC(=O)NCC(=O)NC3CCCCC3)nc(-c3ccc(OC)cc3)n2)cc1 [8b] | 6% | 9% | 3% | 113 to 115 °C
COc1ccc(-c2cc(NC(=O)COCC(=O)N(C)CC(=O)NCc3ccccc3)nc(-c3ccc(OC)cc3)n2)cc1 [8f] | 6% | 1% | 2% | 166 to 168 °C
COc1ccc(-c2cc(NC(=O)COCC(=O)N3CCN(CC(=O)NCc4ccccc4)CC3)nc(-c3ccc(OC)cc3)n2)cc1 [10c] | 2% | 7% | 1% | 
COc1ccc(-c2cc(NC(=O)COCC(=O)N3CCN(CC(=O)NC4CCCCC4)CC3)nc(-c3ccc(OC)cc3)n2)cc1 [10b] | 11% | 3% | 2% | 
COc1ccc(-c2cc(NC(=O)CCC(=O)N(C)CC(=O)NC3CCCCC3)nc(-c3ccc(OC)cc3)n2)cc1 [7e] | 9% | 11% | 1% | 
COc1ccc(-c2cc(NC(=O)COCC(=O)N3CCN(CC(=O)NC(C)(C)C)CC3)nc(-c3ccc(OC)cc3)n2)cc1 [10a] | 9% | 36% | 3% | 106 to 108 °C
COc1ccc(-c2cc(NC(=O)CCC(=O)N(C)CC(=O)NCc3ccccc3)nc(-c3ccc(OC)cc3)n2)cc1 [7f] | 32% | 20% | 2% | 
COc1ccc(-c2cc(NC(=O)COCC(=O)N(C)CC(=O)NC(C)(C)C)nc(-c3ccc(OC)cc3)n2)cc1 [8d] | 20% | 4% | 2% | 115 to 117 °C
COc1ccc(-c2cc(NC(=O)COCC(=O)NCC(=O)NC(C)(C)C)nc(-c3ccc(OC)cc3)n2)cc1 [8a] | 7% | 9% | 3% | 
COc1ccc(-c2cc(NC(=O)CCC(=O)N(C)CC(=O)NC(C)(C)C)nc(-c3ccc(OC)cc3)n2)cc1 [7d] | 32% | 3% | 10% | 136 to 138 °C
COc1ccc(-c2cc(NC(=O)COCC(=O)NCC(=O)NCc3ccccc3)nc(-c3ccc(OC)cc3)n2)cc1 [8c] | 9% | 1% | 2% | 201 to 203 °C
COc1ccc(-c2cc(NC(=O)CCC(=O)N3CCN(CC(=O)NC(C)(C)C)CC3)nc(-c3ccc(OC)cc3)n2)cc1 [9a] | 19% | 4% | 1% | 203 to 205 °C
COc1ccc(-c2cc(NC(=O)CCC(=O)NCC(=O)NC(C)(C)C)nc(-c3ccc(OC)cc3)n2)cc1 [7a] | 10% | 3% | 4% | 176 to 178 °C
COc1ccc(-c2cc(NC(=O)CCC(=O)NCC(=O)NCc3ccccc3)nc(-c3ccc(OC)cc3)n2)cc1 [7c] | 2% | 3% | 3% | 184 to 186 °C
